According to patent publication US20260015350A1, “AZAQUINAZOLINE PAN-KRAS INHIBITORS” (Mirati Therapeutics, Inc., priority 2022, published 2026):

Legend:
[1] = test system: KRas-mediated phosphorylation of ERK in H727 cells; experiment: Inhibition of KRas-mediated phosphorylation of ERK (Cisbio HTRF pERK), H727 cells; assay type: cell-based; conditions: Homo sapiens, NCI-H727, H727 cells; HTRF pERK
How it was run: (§1)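 Cells were seeded at 6,000 per well and treated for 3 hrs with compound in a 10-dose, 3-fold series from 10 uM (0.8% final DMSO), with 0.2 uM Trametinib as Min control. Lysates made at 4° C over 40 mins were incubated 2 hrs at room temperature with d2- and Cryptate-labelled antibodies, then read by HTRF.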

[2] = test system: KRas-mediated phosphorylation of ERK in MKN1 cells; experiment: Inhibition of KRas-mediated phosphorylation of ERK (Cisbio HTRF pERK), MKN1 cells; assay type: cell-based; conditions: Homo sapiens, MKN-1
Protocol: (§2) Inhibition of KRas Phosphorylation of ERK (HTRF) by Exemplary Compounds of Formula (I)
(§3) Cisbio HTRF Advanced PERK Assay Catalog #64AERPEH
(§4) Day 1: Seed 6,000 cells/well-25 μl/well in 384-well white solid bottom plate; RPM1_10% FBS. Incubate overnight at 37° C./5% CO2.
(§5) Incubate for 4 hours at room temperature covered.
(§6) Read HTRF using ClarioStar

KRas^G12R = biological target: T1, KRas^G12R (Homo sapiens, UniProt P01116, G12R); experiment: KRas binding assay (TR-FRET tracer displacement), KRas G12R
T1 construct: Biotinylated KRas (corresponding to amino acids 1-169, produced at Accelegan Inc.); biotin (biotinylated); purchased Accelegan Inc

KRas^G12V = biological target: T2, KRas^G12V (Homo sapiens, UniProt P01116, G12V); experiment: KRas binding assay (TR-FRET tracer displacement), KRas G12V
T2 construct: Biotinylated KRas (corresponding to amino acids 1-169, produced at Accelegan Inc.); biotin (biotinylated); purchased Accelegan Inc

[3] = test system: KRas-mediated phosphorylation of ERK in AsPC-1 cells; experiment: Inhibition of KRas-mediated phosphorylation of ERK (Cisbio HTRF pERK), AsPC-1 cells; assay type: cell-based; conditions: Homo sapiens, ASPC1, AsPC-1 cells; HTRF pERK
How it was run: as §1

KRas^G12D = biological target: T3, KRas^G12D (Homo sapiens, UniProt P01116, G12D); experiment: KRas binding assay (TR-FRET tracer displacement), KRas G12D
T3 construct: Biotinylated KRas (corresponding to amino acids 1-169, produced at Accelegan Inc.); biotin (biotinylated); purchased Accelegan Inc

[4] = test system: KRas-mediated phosphorylation of ERK in PSN1 cells; experiment: Inhibition of KRas-mediated phosphorylation of ERK (Cisbio HTRF pERK), PSN1 cells; assay type: cell-based; conditions: Homo sapiens
Protocol: as §2, §3, §4, §5, §6

T1 sequence (P01116 1-169 isoform P01116-2 G12R): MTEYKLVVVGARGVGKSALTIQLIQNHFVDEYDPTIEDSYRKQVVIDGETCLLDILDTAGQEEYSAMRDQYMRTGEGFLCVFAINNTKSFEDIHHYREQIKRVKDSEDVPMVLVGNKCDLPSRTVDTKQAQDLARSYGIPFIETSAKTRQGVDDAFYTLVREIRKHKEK
T3 sequence (P01116 1-169 isoform P01116-2 G12D): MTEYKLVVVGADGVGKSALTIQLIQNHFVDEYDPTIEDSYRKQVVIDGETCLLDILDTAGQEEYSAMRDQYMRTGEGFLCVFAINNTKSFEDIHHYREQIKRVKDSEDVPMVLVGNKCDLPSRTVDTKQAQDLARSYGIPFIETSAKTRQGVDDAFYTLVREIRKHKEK
T2 sequence (P01116 1-169 isoform P01116-2 G12V): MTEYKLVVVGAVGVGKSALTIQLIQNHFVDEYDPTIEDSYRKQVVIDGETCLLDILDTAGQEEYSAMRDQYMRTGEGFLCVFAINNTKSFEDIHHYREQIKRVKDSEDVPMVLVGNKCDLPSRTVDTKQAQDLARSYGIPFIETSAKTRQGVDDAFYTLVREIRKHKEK

Row | IC50 [1] | IC50 [2] | IC50 (KRas^G12R) | IC50 (KRas^G12V) | IC50 [3] | IC50 (KRas^G12D) | IC50 [4] | Compound
1 | 68 nM | 37 nM | 4 nM | 2 nM | 149 nM | 8 nM | 5670 nM | CCc1c(F)ccc2cc(O)c(F)c(-c3ncc4c(N5C[C@@H]6C[C@H](C5)[C@H](O)C6)nc(OC[C@@]56CCCN5C[C@H](F)C6)nc4c3F)c12 [Example 811, (1R,5R,6R)-3-(7-(8-ethyl-2,7-difluoro-3-hydroxynaphthalen-1-yl)-8-fluoro-2-(((2R,7aS)-2-fluorotetrahydro-1H-pyrrolizin-7a(5H)-yl)methoxy)pyrido[4,3-d]pyrimidin-4-yl)-3-azabicyclo[3.2.1]octan-6-ol]
2 | 402 nM | 176 nM | 3 nM | < 2 nM | 485 nM | < 2 nM | > 10000 nM | C#Cc1c(F)ccc2cc(O)cc(-c3ncc4c(N5CCC[C@@](C)(O)C5)nc(OC[C@]56CCCN5[C@H](CO)CC6)nc4c3F)c12 [Example 814, (R)-1-(7-(8-ethynyl-7-fluoro-3-hydroxynaphthalen-1-yl)-8-fluoro-2-(((3S,7aR)-3-(hydroxymethyl)tetrahydro-1H-pyrrolizin-7a(5H)-yl)methoxy)pyrido[4,3-d]pyrimidin-4-yl)-3-methylpiperidin-3-ol]
3 | 28 nM | 22 nM | 4 nM | < 2 nM | 32 nM | 2 nM | 2290 nM | CCc1c(F)ccc2cc(O)cc(-c3ncc4c(N5CCC[C@@](C)(O)C5)nc(OC[C@@]56CCCN5C[C@H](F)CC6)nc4c3F)c12 [Example 815, (R)-1-(7-(8-ethyl-7-fluoro-3-hydroxynaphthalen-1-yl)-8-fluoro-2-(((6R,8aS)-6-fluorohexahydroindolizin-8a (1H)-yl)methoxy)pyrido[4,3-d]pyrimidin-4-yl)-3-methylpiperidin-3-ol]
4 | 43 nM | 50 nM | 2 nM | < 2 nM | 188 nM | 5 nM | 5110 nM | Oc1cc(-c2ncc3c(N4C[C@@H]5C[C@H](C4)[C@H](O)C5)nc(OC[C@@]45CCCN4C[C@H](F)C5)nc3c2F)c2cc(C(F)(F)F)ccc2c1 [Example 817, (1R,5R,6R)-3-(8-fluoro-2-(((2R,7aS)-2-fluorotetrahydro-1H-pyrrolizin-7a(5H)-yl)methoxy)-7-(3-hydroxy-7-(trifluoromethyl)naphthalen-1-yl)pyrido[4,3-d]pyrimidin-4-yl)-3-azabicyclo[3.2.1]octan-6-ol]
5 | 267 nM | 188 nM | 12 nM | 5 nM | 272 nM | 5 nM | 7860 nM | CCc1c(F)ccc2cc(O)cc(-c3ncc4c(N5CCCCC(n6ccnn6)C5)nc(OC[C@@]56CCCN5C[C@H](F)C6)nc4c3F)c12 (stereo partly drawn) [Example 830, 4-(4-(3-(1H-1,2,3-triazol-1-yl)azepan-1-yl)-8-fluoro-2-(((2R,7aS)-2-fluorotetrahydro-1H-pyrrolizin-7a(5H)-yl)methoxy)pyrido[4,3-d]pyrimidin-7-yl)-5-ethyl-6-fluoronaphthalen-2-ol]

Row | Compound | IC50 [1] | IC50 [2] | IC50 (KRas^G12R) | IC50 (KRas^G12V) | IC50 [3] | IC50 (KRas^G12D) | IC50 [4]
6 | CCc1c(F)ccc2cc(O)cc(-c3ncc4c(N5C[C@H]6CC[C@@H](C5)N6C5CC(F)(F)C5)nc(OC[C@@]56CCCN5C[C@H](F)C6)nc4c3F)c12 [Example 831, 4-(4-((1R,5S)-8-(3,3-difluorocyclobutyl)-3,8-diazabicyclo[3.2.1]octan-3-yl)-8-fluoro-2-(((2R,7aS)-2-fluorotetrahydro-1H-pyrrolizin-7a(5H)-yl)methoxy)pyrido[4,3-d]pyrimidin-7-yl)-5-ethyl-6-fluoronaphthalen-2-ol] | 1080 nM | 13 nM | 38 nM | 36 nM | 331 nM | 42 nM | > 10000 nM
